BindingDB's records for doi:10.1016/S0960-894X(96)00247-8 (1996)

How the values were obtained:
[1] = molecular target: Glutamate-cysteine ligase gshA (Escherichia coli) (UniProt P0A6W9); test: Tested for inhibition of Escherichia coli gamma-glutamylcysteine synthetase at a concentration of 5.7 uM
[2] = molecular target: Glutamate-cysteine ligase gshA (Escherichia coli) (UniProt P0A6W9); test: Tested for inhibition of Escherichia coli gamma-glutamylcysteine synthetase at a concentration of 5.1 uM

Sequence of Glutamate-cysteine ligase gshA (Escherichia coli) (P0A6W9 whole entry, looked up): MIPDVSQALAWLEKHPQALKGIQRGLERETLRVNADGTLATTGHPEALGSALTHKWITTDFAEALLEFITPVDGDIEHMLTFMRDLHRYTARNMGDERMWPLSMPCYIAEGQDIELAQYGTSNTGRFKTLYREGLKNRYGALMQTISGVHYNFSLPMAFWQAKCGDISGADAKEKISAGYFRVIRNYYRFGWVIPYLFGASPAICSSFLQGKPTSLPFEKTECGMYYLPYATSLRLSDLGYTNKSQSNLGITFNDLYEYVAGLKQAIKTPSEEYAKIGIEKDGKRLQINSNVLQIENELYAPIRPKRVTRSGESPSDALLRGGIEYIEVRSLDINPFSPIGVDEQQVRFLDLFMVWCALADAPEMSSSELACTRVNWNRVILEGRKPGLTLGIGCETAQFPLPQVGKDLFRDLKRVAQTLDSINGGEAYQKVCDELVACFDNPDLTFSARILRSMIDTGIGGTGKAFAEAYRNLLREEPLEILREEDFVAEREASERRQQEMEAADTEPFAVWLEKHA

| Compound | Ki [1] | Ki [2] |
| --- | --- | --- |
| CCC(CP(=O)(O)CC[C@H](N)C(=O)O)C(=O)O (stereo partly drawn) [(2S)-2-ammonio-4-[(2-carboxylatobutyl)phosphinato]butanoate] | 4.95 µM | – |
| CCCCS(=N)(=O)CCC(=N)C(=O)O (configuration not stated) | – | 49.3 µM |
